Measured values: ChEMBL document CHEMBL1201862, “PubChem BioAssay data set” (2004)
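The compound was tested at five concentrations on cells cultured in 96-well plates, with a 48-hour exposure period. The concentration for 50% growth inhibition is given as GI50.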 Activity calls are given as the source filed them. Cut-off read from the data, not from the text of the source: active = GI50 up to about 1.1 µM and inactive = higher.

Legend:
Test in all cases: growth of human tumour cells (NCI), 48 h
MOLT-4 = system: MOLT-4
TK-10 = system: TK-10
Hs-578T = system: Hs-578T
U-251 = system: U-251
Malme-3M = system: Malme-3M
SF-295 = system: SF-295
OVCAR-4 = system: OVCAR-4
BT-549 = system: BT-549
CAKI-1 = system: CAKI-1
A498 = system: A498
EKVX = system: EKVX
COLO 205 = system: COLO 205
K562 = system: K562
UACC-62 = system: UACC-62
HCT-116 = system: HCT-116
T47D = system: T47D
A549 = system: A549
HOP-18 = system: HOP-18
KM12 = system: KM12
OVCAR-5 = system: OVCAR-5

Measured: GI50

N#CC(C#N)=C(N)/C(C#N)=C/c1ccc2[nH]ccc2c1
inactive: MOLT-4 > 100 µM | TK-10 > 100 µM | Hs-578T > 100 µM | U-251 > 100 µM | Malme-3M > 100 µM | SF-295 > 100 µM | OVCAR-4 > 100 µM | BT-549 70.6 µM | CAKI-1 > 100 µM | A498 > 100 µM | EKVX > 100 µM | COLO 205 > 100 µM | K562 > 100 µM | UACC-62 > 84.9 µM | HCT-116 > 100 µM | T47D > 100 µM | A549 > 100 µM | HOP-18 71.4 µM | KM12 > 100 µM | OVCAR-5 > 100 µM
